The values that follow come from US7976582B2, “Bleaching of substrates” (Conopco, Inc., priority 2007, dated 2011).

Data set [1] in a line: Raw cotton bleaching, pH control by continuously adding NaOH (Experiment 1). Conditions: for Whiteness (Berger) Wb: 20 microM catalyst, unbuffered, 0.2 g/l DTPA, H2O2, 80° C., 30 minutes. The procedure: Raw cotton with a Berger Whiteness value of 5.5+/−1.0 was treated as follows: 6 grams of the cotton was immersed into temperature-controlled beaker glasses a 60 ml solution (cloth/liquor ratio of 1/10) containing 20 microM of [Mn2O3(Me3-TACN)2] […]
Drops of NaOH (1M) were added to maintain the pH (within 0.2 pH units) for 30 minutes of agitated solutions at 75 to 80° C. The pH was monitored with a pH meter. Subsequently the cotton swatches were rinsed with 2 to 3 liters of hot demineralised water (80° C.), then washed with copious amounts of demineralised water, spun in a spin drier for 3 minutes and dried overnight under ambient conditions. The optical properties of the cloths were then measured using a Minolta spectrophotometer CM-3700d, using L, a, b values which are converted to Berger Whiteness values.
The values of the whiteness is expressed in Berger units. The formula of Berger whiteness is given below: Wberger=Y+a.Z−b.X, where a=3.448 and b=3.904.
The values X, Y, Z are the coordinates of the achromatic point.

The nature of data set [2]: Raw cotton bleaching, high starting pH left to reduce during bleaching (Experiment 3). Conditions: 10 microM catalyst, H2O2, DTPA, 77° C., 30 minutes; pH(init) 10.7, pH(final) 9.7. Here is the method:
A batch of raw cotton with a Berger Whiteness value of 0 was treated as follows: 6 grams of the cotton was immersed into temperature-controlled beaker glasses a 60 ml solution (cloth/liquor ratio of 1/10) containing 10 microM of [Mn2O3(Me3-TACN)2] (PF6)2.H2O, 2.3% H2O2 (equals to 6.66 ml (35%)/l; w/w wrt cotton), 0.4 g/l H5-DTPA (ex Akzo-Nobel; trade name Dissolvine D50; purity is 50%), and 2 g/l Sandoclean PCJ (ex Clariant). The temperature of the experiment was 77° C.
The pH of water containing Sandoclean, Na5DTPA, cotton and appropriate amount of NaOH was determined at room temperature, heated to 77° C., the pH value was monitored and then hydrogen peroxide was added. Then a correction for the addition of hydrogen peroxide was made by adding some extra NaOH. Then the catalyst was added and left for 30 minutes under stirring. The cloths were then rinsed and washed as described above. The pH of the solution after the bleaching stage was determined after allowing the solution cooled down to room temperature. As a comparative experiment to determine the effect of the manganese-triazacyclononane compound, no catalyst was added. The values of the whiteness are expressed in Berger units, as defined above.

For data set [3] the following is noted: 20° C.; cited from earlier work.
Data set [4] in a line: Raw cotton bleaching, NaOH/H2O2 pretreatment without catalyst, then lower pH and add catalyst (Experiment 2). The procedure:
Raw cotton with a Berger Whiteness value of 5.5+/−1.0 was treated as follows: 6 grams of the cotton was immersed into temperature-controlled beaker glasses of a 60 ml solution (cloth/liquor ratio of 1/10), containing 0.5 g/l DTPA, 2 g/l Sandoclean PCJ, 2.3% H2O2 (equals to 6.66 ml (35%)/1; w/w wrt cotton), for 15 minutes at 75° C. Subsequently, sulphuric acid was added (1M) until the desired pH was added followed by 20 microM of [Mn2O3(Me3-TACN)2] (PF6)2.H2O and the mixture left for 15 minutes with continuous stirring. No NaOH solution was added during the bleaching process in the presence of catalyst. After the allocated time, the cloths are washed and dried as exemplified above. The values of the whiteness are expressed in Berger units, as defined above.
Table 2: Whiteness (Berger) results obtained using 20 microM [Mn2O3(Me3-TACN)2] (PF6)2.H2O in an unbuffered solution with 0.2 g/l DTPA at 75° C. for 15 minutes, after having the cloths allowed to pretreat with NaOH/H2O2 for 15 minutes at 75° C. (entry 1) vs adding the catalyst at the beginning of the bleaching experiment at pH 9.75.

Turning to `CN1CCN(C)CCN(C)CC1.CN1CCN(C)CCN(C)CC1.F[P-](F)(F)(F)(F)F.F[P-](F)(F)(F)(F)F.O.[Mn+4].[Mn+4].[O-2].[O-2].[O-2]` [[Mn2O3(Me3-TACN)2](PF6)2•H2O, [Mn2O3(Me3-TACN)2] (PF6)2.H2O], the “Whiteness (Berger) Wb” value in data set [1] (pH(init) 9.75, pH(final) 7.3 (pH not controlled)) is 51.0 Wb; in data set [1] (pH(init) 10.0, pH(final) 9.5 (pH controlled with NaOH)), 63.1 Wb; in data set [2] it was 57.6 Wb; in data set [4] (20 microM catalyst, 0.2 g/l DTPA, 75° C., 15 minutes after 15 minutes NaOH/H2O2 pretreatment, pH(step 1) 11, pH(step2) 10, pH(final) 9.4), 60.0 Wb; in data set [4] (catalyst added at the beginning, no pretreatment, pH 9.75, pH(final) 7.6), 51.0 Wb. Besides, the “Whiteness lower without DTPA than the system with DTPA” value in data set [1] (in the presence of catalyst, without DTPA added) is “about 10 Wb”. Also, the water solubility in data set [3] is reported as 10.8 g per liter.
